Reference: the NIST ThermoML archive (doi:10.1021/acs.jced.5b00270)
Numbers after ± are expanded uncertainties.

Conditions: Liquid, Capillary tube (Ostwald / Ubbelohde) method

For `C1CCCCC1` [cyclohexane], the viscosity (303.1 K, 2930 kPa) was 0.852 ± 0.029 mPa·s, the viscosity (305.1 K, 960 kPa) was 0.801 ± 0.026 mPa·s and the viscosity (305.2 K, 140 kPa) was 0.796 ± 0.027 mPa·s. The viscosity (305.2 K, 1960 kPa) was 0.819 ± 0.027 mPa·s, the viscosity (305.2 K, 3940 kPa) was 0.839 ± 0.028 mPa·s and the viscosity (313.8 K, 2920 kPa) was 0.721 ± 0.025 mPa·s. For the same compound, the viscosity (323.7 K, 150 kPa) was 0.601 ± 0.02 mPa·s, the viscosity (323.7 K, 1990 kPa) was 0.614 ± 0.02 mPa·s and the viscosity (323.7 K, 4000 kPa) was 0.631 ± 0.021 mPa·s. The viscosity (324 K, 1020 kPa) was 0.616 ± 0.021 mPa·s, the viscosity (348.9 K, 140 kPa) was 0.432 ± 0.015 mPa·s and the viscosity (348.9 K, 990 kPa) was 0.44 ± 0.015 mPa·s. For the same compound, the viscosity (348.9 K, 2080 kPa) was 0.445 ± 0.014 mPa·s, the viscosity (348.9 K, 3030 kPa) was 0.451 ± 0.015 mPa·s and the viscosity (348.9 K, 3930 kPa) was 0.449 ± 0.015 mPa·s. The viscosity (373.7 K, 970 kPa) was 0.331 ± 0.011 mPa·s, the viscosity (373.7 K, 2020 kPa) was 0.336 ± 0.011 mPa·s and the viscosity (373.7 K, 2930 kPa) was 0.34 ± 0.011 mPa·s. For the same compound, the viscosity (373.7 K, 3960 kPa) was 0.346 ± 0.011 mPa·s, the viscosity (398.1 K, 2000 kPa) was 0.262 ± 0.0085 mPa·s and the viscosity (398.1 K, 4010 kPa) was 0.27 ± 0.0088 mPa·s. It also gave a viscosity (398.2 K, 960 kPa) of 0.258 ± 0.0084 mPa·s, a viscosity (398.2 K, 2940 kPa) of 0.266 ± 0.0087 mPa·s and a viscosity (422.4 K, 960 kPa) of 0.204 ± 0.0066 mPa·s. For the same compound, the viscosity (422.5 K, 1970 kPa) was 0.209 ± 0.0068 mPa·s, the viscosity (422.5 K, 2960 kPa) was 0.214 ± 0.007 mPa·s and the viscosity (422.5 K, 3960 kPa) was 0.216 ± 0.007 mPa·s. The viscosity (447.5 K, 1010 kPa) was 0.165 ± 0.0054 mPa·s, the viscosity (447.6 K, 2040 kPa) was 0.165 ± 0.0055 mPa·s and the viscosity (447.7 K, 3010 kPa) was 0.17 ± 0.0056 mPa·s. It also gave a viscosity (447.7 K, 4000 kPa) of 0.174 ± 0.0057 mPa·s, a viscosity (473.3 K, 3000 kPa) of 0.138 ± 0.0046 mPa·s and a viscosity (473.4 K, 1930 kPa) of 0.131 ± 0.0044 mPa·s. It also gave a viscosity (473.4 K, 3930 kPa) of 0.139 ± 0.0046 mPa·s, a viscosity (497.9 K, 3050 kPa) of 0.106 ± 0.0036 mPa·s and a viscosity (498.1 K, 3980 kPa) of 0.11 ± 0.0037 mPa·s. It also gave a viscosity (498.2 K, 3020 kPa) of 0.106 ± 0.0036 mPa·s, a viscosity (498.3 K, 4020 kPa) of 0.11 ± 0.0037 mPa·s and a viscosity (523 K, 3050 kPa) of 0.0791 ± 0.0028 mPa·s. It also gave a viscosity (523 K, 3970 kPa) of 0.0856 ± 0.003 mPa·s.
`CCCCCCCCCC` [decane] gave a viscosity (303.1 K, 3970 kPa) of 0.828 ± 0.028 mPa·s, a viscosity (303.2 K, 960 kPa) of 0.8 ± 0.026 mPa·s and a viscosity (303.2 K, 3010 kPa) of 0.814 ± 0.027 mPa·s. For the same compound, the viscosity (303.3 K, 150 kPa) was 0.788 ± 0.026 mPa·s, the viscosity (303.3 K, 2000 kPa) was 0.808 ± 0.027 mPa·s and the viscosity (323.7 K, 1120 kPa) was 0.617 ± 0.02 mPa·s. The viscosity (323.7 K, 1990 kPa) was 0.628 ± 0.021 mPa·s, the viscosity (323.7 K, 3010 kPa) was 0.625 ± 0.02 mPa·s and the viscosity (323.8 K, 140 kPa) was 0.606 ± 0.02 mPa·s. It also gave a viscosity (323.8 K, 3960 kPa) of 0.631 ± 0.021 mPa·s, a viscosity (348.9 K, 140 kPa) of 0.459 ± 0.015 mPa·s and a viscosity (348.9 K, 1050 kPa) of 0.465 ± 0.015 mPa·s. The viscosity (348.9 K, 2090 kPa) was 0.469 ± 0.015 mPa·s, the viscosity (348.9 K, 2930 kPa) was 0.475 ± 0.015 mPa·s and the viscosity (348.9 K, 3950 kPa) was 0.481 ± 0.016 mPa·s. It also gave a viscosity (373.7 K, 130 kPa) of 0.365 ± 0.012 mPa·s, a viscosity (373.7 K, 960 kPa) of 0.368 ± 0.012 mPa·s and a viscosity (373.7 K, 2040 kPa) of 0.373 ± 0.012 mPa·s. The viscosity (373.7 K, 2890 kPa) was 0.376 ± 0.012 mPa·s, the viscosity (373.7 K, 3960 kPa) was 0.381 ± 0.013 mPa·s and the viscosity (398.1 K, 3940 kPa) was 0.312 ± 0.01 mPa·s. It also gave a viscosity (398.2 K, 140 kPa) of 0.295 ± 0.0097 mPa·s, a viscosity (398.2 K, 990 kPa) of 0.299 ± 0.0097 mPa·s and a viscosity (398.2 K, 2030 kPa) of 0.304 ± 0.0098 mPa·s. The viscosity (398.2 K, 2910 kPa) was 0.309 ± 0.01 mPa·s, the viscosity (423.4 K, 2960 kPa) was 0.254 ± 0.0083 mPa·s and the viscosity (423.4 K, 3940 kPa) was 0.258 ± 0.0084 mPa·s. For the same compound, the viscosity (423.5 K, 950 kPa) was 0.247 ± 0.008 mPa·s, the viscosity (423.5 K, 1060 kPa) was 0.246 ± 0.008 mPa·s and the viscosity (423.5 K, 2110 kPa) was 0.251 ± 0.0081 mPa·s. It also gave a viscosity (447.7 K, 1060 kPa) of 0.206 ± 0.0067 mPa·s, a viscosity (447.7 K, 1990 kPa) of 0.209 ± 0.0068 mPa·s and a viscosity (447.7 K, 2960 kPa) of 0.212 ± 0.0069 mPa·s. It also gave a viscosity (447.7 K, 3990 kPa) of 0.216 ± 0.007 mPa·s, a viscosity (473.4 K, 2150 kPa) of 0.174 ± 0.0057 mPa·s and a viscosity (473.4 K, 2920 kPa) of 0.177 ± 0.0058 mPa·s. It also gave a viscosity (473.4 K, 3990 kPa) of 0.18 ± 0.0059 mPa·s, a viscosity (498.2 K, 3890 kPa) of 0.152 ± 0.005 mPa·s and a viscosity (498.3 K, 2090 kPa) of 0.146 ± 0.0048 mPa·s. It also gave a viscosity (498.3 K, 3060 kPa) of 0.15 ± 0.0049 mPa·s, a viscosity (523 K, 3970 kPa) of 0.129 ± 0.0043 mPa·s and a viscosity (523.1 K, 1060 kPa) of 0.118 ± 0.004 mPa·s. For the same compound, the viscosity (523.1 K, 1940 kPa) was 0.122 ± 0.0041 mPa·s, the viscosity (523.1 K, 3000 kPa) was 0.126 ± 0.0042 mPa·s and the viscosity (547.9 K, 1070 kPa) was 0.0957 ± 0.0033 mPa·s. For the same compound, the viscosity (547.9 K, 1980 kPa) was 0.1 ± 0.0034 mPa·s, the viscosity (547.9 K, 2940 kPa) was 0.105 ± 0.0035 mPa·s and the viscosity (547.9 K, 4000 kPa) was 0.108 ± 0.0036 mPa·s. The viscosity (573.6 K, 1930 kPa) was 0.0796 ± 0.0028 mPa·s, the viscosity (573.7 K, 2970 kPa) was 0.0855 ± 0.003 mPa·s and the viscosity (573.8 K, 4030 kPa) was 0.091 ± 0.0031 mPa·s. It also gave a viscosity (598.4 K, 4020 kPa) of 0.0745 ± 0.0026 mPa·s, a viscosity (598.5 K, 2090 kPa) of 0.0619 ± 0.0023 mPa·s and a viscosity (598.5 K, 2980 kPa) of 0.0696 ± 0.0025 mPa·s.
